Values after ≈ are worked out from the molar mass of the structure shown. Values joined by “and” are separate entries in the source; they are usually repeats but may differ in a detail not shown here. Equal entries are not always repeated. “Also recorded” adds a separate entry of the source. Where two headings read alike, the source gives them in different places.
Legend:
[1] = tested on: BVDV (strain NADL) in MDBK cells; test: BVDV cell protection assay (CPA); type: cell-based; conditions: Bovine viral diarrhea virus isolates and strains
[2] = tested on: BVDV New York-1 ncp in MDBK cells; test: Yield reduction assay; type: cell-based, bovine viral diarrhea virus
[3] = tested on: BVDV I-N-dlns ncp in MDBK cells; test: microbe, parasite or virus in culture; type: cell-based; conditions: Bovine viral diarrhea virus isolates and strains, read-out: Antiviral Efficacy EC90
DENV-4 in BHK cells = test: Cell protection assay; type: cell-based; conditions: Dengue virus, DENV4, DENV-4, BHK
BVDV = test: Antiviral test (Table 8b); type: cell-based; conditions: Bovine viral diarrhea virus isolates and strains; table note: BHK for Bovine Viral Diarrhea Virus
YFV = test: microbe, parasite or virus in culture; type: cell-based; conditions: Yellow fever virus, read-out: YFV (Table 8b)
DENV 2 = test: Antiviral test (Table 8b); type: cell-based; conditions: Dengue virus
CVB-2 = test: Antiviral test (Tables 8b, 8c); type: cell-based, Coxsackievirus B-2; conditions: Coxsackievirus
Sb-1 = test: microbe, parasite or virus in culture; type: cell-based, poliovirus Sabin type-1; conditions: Enterovirus C
REO-1 = test: Antiviral test (Tables 8b, 8c); type: cell-based, double-stranded RNA viruses
CVB-3 = test: microbe, parasite or virus in culture; type: cell-based, Coxsackievirus B-3; conditions: Coxsackievirus, read-out: EC50 CVB-3
CVA-9 = test: microbe, parasite or virus in culture; type: cell-based, Coxsackievirus A-9; conditions: Coxsackievirus, read-out: EC50 CVA-9
EBV (Daudi) = test: microbe, parasite or virus in culture; type: cell-based; conditions: human gammaherpesvirus 4, Daudi
MCMV (MEF) = test: organism not typed; type: cell-based
[4] = tested on: Parainfluenzatype 3 (MA-104); test: organism not typed; type: cell-based; conditions: MA104
Punta Toro A (LLC-MK2) = test: organism not typed; type: cell-based
Cytotoxicity (Table 10) [5] = type: cell-based; conditions: human, Daudi cells, EBV row
[6] = tested on: different strains of BVDV; test: BVDV cell protection, plaque reduction and yield reduction assays, summary over strains; type: cell-based; conditions: Bovine viral diarrhea virus isolates and strains, all three assays
BVDV RNA = test: Intracellular BVDV RNA by Real Time RT-PCR in de novo-infected MDBK cells; type: cell-based; conditions: Bovine viral diarrhea virus isolates and strains, 18-hours post infection
Cytotoxicity assay [7] = conditions: human
Cytotoxicity assay [8] = conditions: mouse
Cytotoxicity (Table 10) [9] = conditions: human, A549 cells
Cytotoxicity (Table 10) [10] = conditions: rhesus monkey, MA-104 cells
Cytotoxicity (Table 10) [11] = conditions: human, KB cells
[12] = Human bone marrow clonogenic assay
[13] = In vitro stability in human plasma; conditions: human plasma or crude human cytidine/deoxycytidine deaminase preparation, 37° C.
[14] = Cytotoxicity testing by NIH program; conditions: human and other mammalian
[15] = Cytotoxicity (cell proliferation) assay; conditions: human, Huh7 hepatoma cells
[16] = Cytotoxicity (cell proliferation) assay; conditions: bovine, MDBK kidney cells
[17] = Cytotoxicity (cell proliferation) assay; conditions: hamster, BHK-21 kidney cells
[18] = Cytotoxicity (cell proliferation) assay; conditions: rat, H9c2 myocardial cells
HepG2 cells [19] = test: Mitochondria toxicity assay, lactic acid production
[20] = Clinical pharmacokinetics of mCyd after oral val-mCyd; conditions: human, plasma, mCyd in plasma; for AUC(0-inf): AUC0-inf (Mean); for Cmax: Cmax (Mean); for Tmax: Tmax (Mean); for half-life: t1/2 (Mean)
[21] = Cytotoxicity on uninfected cells in parallel to the CPA; conditions: bovine, uninfected MDBK kidney cells
HepG2 cells [22] = test: Transmission electron microscopy of mitochondrial ultrastructure; conditions: 10 μM, 14 days
[23] = 50 mg, val-mCyd 50 mg PO, Day 1
[24] = 50 mg, val-mCyd 50 mg PO, Day 15
[25] = 100 mg, val-mCyd 100 mg PO, Day 1
[26] = 100 mg, val-mCyd 100 mg PO, Day 15

In the case of `CC1(O)C(O)C(CO)OC1n1ccc(N)nc1=O` (centres unmarked) [mCyd, 4-Amino-1-(3,4-dihydroxy-5-hydroxymethyl-3-methyl-tetrahydro-furan-2-yl)-1H-pyrimidine-2-one], the EC50 ([1]; 96 h, BVDV NADL cp, de novo infection, 4 days) is reported as 0.67 ± 0.22 µM, the EC50 ([1]; BVDV MOI 0.16) is reported as roughly 2.2 µM and the “Antiviral Efficacy EC4 log” value [2] is reported as 6.03 ± 1.41 μM. It also gave an EC50 ([2]; Bovine viral diarrhea virus isolates and strains) of 0.3 ± 0.07 µM, an EC90 ([2]; Bovine viral diarrhea virus isolates and strains, read-out: Antiviral Efficacy EC90) of 0.87 ± 0.18 µM and an EC90 [3] of 1.49 µM. For the same compound, the EC50 (DENV-4 in BHK cells) was 59 µM, the EC50 (BVDV) was 2.3 µM and the EC50 (YFV) was 54 µM. It also gave an EC50 (DENV 2) of 95 µM, an EC50 (CVB-2; Table 8c, read-out: EC50 CVB-2) of 11 µM and an EC50 (CVB-2; read-out: CVB-2 (Table 8b)) of 12 µM. The EC50 (Sb-1; read-out: EC50 Sb-1) was 6 µM, the EC50 (Sb-1; read-out: Sb-1 (Table 8b)) was 11.5 µM and the EC50 (REO-1) was 13 µM. For the same compound, the EC50 (CVB-3) was 9 µM, the EC50 (CVA-9) was 26 µM and the EC50 (EBV (Daudi)) was 25.5 µg/mL (≈ 99.1 µM). The EC50 (MCMV (MEF)) was greater than 0.8 µM, the EC50 [4] was greater than 200 µM and the EC50 (Punta Toro A (LLC-MK2)) was greater than 200 µM. For the same compound, the CC50 (Cytotoxicity (Table 10) [5]) was greater than 50 µg/mL, the EC50 ([6]; read-out: range of EC50 values against BVDV) was 0.3 to 2.8 µM and the EC90 ([6]; read-out: range of EC90 values against BVDV) was 0.87 to 4.8 µM. The EC50 (BVDV RNA; read-out: EC50, BVDV RNA levels) was 1.7 µM, the EC90 (BVDV RNA; read-out: EC90, BVDV RNA levels) was 2.3 µM and the CC50 (Cytotoxicity assay [7]; CC50, HFF, HCMV row) was 67 to 73 µg/mL. It also gave a CC50 (Cytotoxicity assay [7]; CC50, HFF, HSV-1 row) greater than 100 µg/mL, a CC50 (Cytotoxicity assay [7]; CC50, HFF, HSV-2 row) greater than 100 µg/mL and a CC50 (Cytotoxicity assay [7]; CC50, HFF, VZV row) of 67.8 µg/mL. For the same compound, the CC50 (Cytotoxicity assay [7]; CC50, rapidly proliferating HFF) was 16.9 µM, the CC50 (Cytotoxicity assay [8]) was 2.4 µM and the CC50 (Cytotoxicity (Table 10) [9]) was greater than 200 µM. For the same compound, the CC50 (Cytotoxicity (Table 10) [10]) was 200 µM, the CC50 (Cytotoxicity (Table 10) [10]; CC50, MA-104, Parainfluenza type 3 row) was greater than 200 µM and the CC50 (Cytotoxicity (Table 10) [11]) was > 200 µM and 20 µg/mL to 30 µg/mL. The CC50 [12] was 14.1 ± 4.5 µM, the “in vitro stability / deamination to mUrd” value [13] was “remained essentially unchanged” and the CC50 [14] was greater than 50 µM. For the same compound, the CC50 at 4 days [15] was greater than 250 µM, the CC50 at 4 days [16] was 36 µM and the CC50 at 4 days [17] was 132 µM. The CC50 at 4 days [18] was greater than 250 µM, the “L-Lactate (% of Control), HepG2 Cells” value (HepG2 cells [19]; 50 μM, 4 days) was 138.0 ± 8.9 % of Control and the “increase in lactic acid production” value (HepG2 cells [19]; HepG2, 50 μM) was 38%. It also gave an AUC(0-inf) [20, 23] of 3120 ng·h/mL, an AUC(0-inf) [20, 24] of 3170 ng·h/mL and a Cmax [20, 23] of 428 ng/mL. For the same compound, the Cmax [20, 24] was 363 ng/mL, the Tmax [20, 23] was 2.5 h and the Tmax [20, 24] was 2.2 h. It also gave a half-life [20, 23] of 4.1 h, a half-life [20, 24] of 4.6 h and an AUC(0-inf) [20, 25] of 6900 ng·h/mL. The AUC(0-inf) [20, 26] was 7670 ng·h/mL, the Cmax [20, 25] was 982 ng/mL and the Cmax [20, 26] was 1050 ng/mL. It also gave a Tmax [20, 25] of 2.6 h, a Tmax [20, 26] of 2 h and a half-life [20, 25] of 4.4 h. The half-life [20, 26] was 4.2 h, the CC50 at 4 days [21] was 38 ± 9 µM and the “Electron Microscopy, Lipid Droplet Form.” value (HepG2 cells [22]) was “Negative”. The “Electron Microscopy, Mito. Morphol.” value (HepG2 cells [22]) was “No changes in cell architecture, or in mitochondrial number or morphology; also recorded: Normal^d” and the “cells with 1 to 2 enlarged mitochondria out of an average of 25 per cell” value (HepG2 cells [22]) was 17%.
